Measured values taken from patent US12565511B2, “SOS1 inhibitor containing phosphorus” (Chia Tai Tianqing Pharmaceutical Group Co., Ltd., priority 2020, dated 2026).
pIC50: −log10 of the molar value.

How the values were obtained:
[1] = tested on: K562 cells; experiment: Assay for proliferation inhibitory activity of K562 cells; type: cell-based; settings: Homo sapiens, 72 h, CCK-8, read-out: K562 cell proliferation inhibition IC50
Protocol: Test Example 4 Assay for Proliferation Inhibitory Activity of K562 Cells
The K562 cell line can be purchased from the American Type Culture Collection (ATCC).
The K562 cells in a good growth state were added to a centrifuge tube with the cell density adjusted to 3×10^4/mL, and seeded on a 96-well plate (100 μL/well). The cells were cultured overnight in a cell incubator, the compound was loaded using a nanoliter pipettor to allow the final compound concentration to be 10000 nM to 4.6 nM, 2 replicate wells were set and control was set.

[2] = molecular target: T1, KRAS-G12C/SOS1 (Homo sapiens, UniProt Q07889); experiment: biochemical
T1 sequence (Q07889 564-1049): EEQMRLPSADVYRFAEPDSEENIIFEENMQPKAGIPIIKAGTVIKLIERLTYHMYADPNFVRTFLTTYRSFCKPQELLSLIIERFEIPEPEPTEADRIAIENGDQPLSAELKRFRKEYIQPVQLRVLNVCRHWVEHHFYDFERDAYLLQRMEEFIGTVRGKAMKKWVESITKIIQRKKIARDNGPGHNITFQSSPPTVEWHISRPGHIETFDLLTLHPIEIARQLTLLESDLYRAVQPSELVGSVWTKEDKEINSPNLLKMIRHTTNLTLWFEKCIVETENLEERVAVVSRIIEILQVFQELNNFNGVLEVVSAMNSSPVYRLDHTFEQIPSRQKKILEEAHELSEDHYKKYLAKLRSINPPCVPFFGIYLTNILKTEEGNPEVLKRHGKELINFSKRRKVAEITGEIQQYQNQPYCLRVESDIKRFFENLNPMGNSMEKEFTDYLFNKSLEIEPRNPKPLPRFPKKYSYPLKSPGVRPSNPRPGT

[3] = molecular target: T2, SOS1cat / KRAS G12C (Homo sapiens, UniProt Q07889); experiment: Guanine nucleotide exchange test (HTRF); type: biochemical; settings: SOS1cat-mediated loading of EDA-GTP-DY-647P1 on His-KRAS G12C, 20° C.; read-out: Nucleotide conversion of HTRF IC50
T2 sequence (Q07889 564-1049): T1 sequence (Q07889 564-1049)
Protocol: Test Example 2 Guanine Nucleotide Exchange Test
This test quantitatively investigates the ability of SOS to mediate KRAS activation. KRAS G12C with a His tag was added to the system, anti-His antibody labeled with lanthanide Eu was combined with the system, then auxiliary protein SOS1cat and GTP analogue EDA-GTP-DY-647P1 with fluorophore were added thereto, the GTP analogue with fluorophore was loaded on KRAS G12C with the assistance of the auxiliary protein, and then energy resonance transfer occurred between Anti-6HS-Cryptate (FRET donor) and EDA-GTP-DY-647P1 (FRET acceptor).
However, after pretreatment with SOS1 inhibitor compounds, the ability of SOS1 to bind and mediate KRAS activation was weakened, and the ability of FRET between donor and acceptor was weakened.
Test buffer was prepared with the following components: HEPES pH 7.4: 20 mM; NaCl: 150 mM; MgCl2: 0.5 mM; DTT: 2 mM; BSA: 0.05%; and Igepal: 0.0025%.
KRAS G12C working solution, SOS1cat working solution and blank control solution were prepared with the test buffers; wherein the KRAS G12C working solution contained 100 nM His-KRAS G12C and 2 nM […]; the SOS1cat working solution contained 20 nM SOS1cat and 200 nM EDA-GTP-DY-647P1; and the blank control solution contained 100 nM EDA-GTP-DY-647P1.
The whole test procedures were completed at 20° C.

Row | Compound | pIC50 [1] | pIC50 [2] | pIC50 [3]
1 | Cc1nc(N[C@H](C)c2cccc(C(F)(F)F)c2F)c2cc(P3(=O)CCN(S(C)(=O)=O)CC3)ncc2n1 [Example 19] | 6.69 | 7.39 | –
2 | Cc1nc(N[C@H](C)c2cccc3c2OCC3(F)F)c2cc(P3(=O)CCN(S(C)(=O)=O)CC3)ncc2n1 [Example 22] | 6.08 | 7.20 | –
3 | Cc1nc(N[C@H](C)c2cccc(C(C)(F)F)c2F)c2cc(P3(=O)CCN(S(C)(=O)=O)CC3)ncc2n1 [Example 23] | 6.93 | – | 6.55
4 | C[C@@H](Nc1nc(CF)nc2cnc(P3(=O)CCN(S(C)(=O)=O)CC3)cc12)c1cccc(C(F)(F)F)c1F [Example 24] | 6.75 | – | –
5 | [2H]C(C)(Nc1nc(C)nc2cnc(P3(=O)CCN(S(C)(=O)=O)CC3)cc12)c1cccc(C(F)(F)F)c1F (stereo not drawn) [Example 25] | 6.61 | 7.07 | –
6 | Cc1nc(N[C@H](CF)c2cccc(C(F)(F)F)c2C)c2cc(P3(=O)CCN(S(C)(=O)=O)CC3)ccc2n1 [Example 26] | – | 6.99 | –
7 | COc1cc2ncnc(N[C@H](C)c3cccc(C(F)F)c3F)c2cc1P1(=O)CCN(C(C)=O)CC1 [Example 28] | 6.62 | 7.30 | –
8 | COc1cc2ncnc(N[C@H](C)c3cccc(C(F)F)c3F)c2cc1P1(=O)CCN(S(C)(=O)=O)CC1 [Example 29] | 6.49 | 7.20 | –
9 | COc1cc2nc(CF)nc(N[C@H](C)c3cccc(C(F)F)c3F)c2cc1P1(=O)CCN(C(C)=O)CC1 [Example 30] | 6.52 | 7.17 | –
10 | CC(=O)N1CCP(=O)(c2ccc3nc(CF)nc(N[C@H](C)c4cccc(C(F)F)c4F)c3c2)CC1 [Example 31] | 6.29 | 6.89 | –
11 | CC(=O)N1CCP(=O)(c2cc3c(N[C@H](C)c4cccc(C(F)F)c4F)nc(CF)nc3cc2F)CC1 [Example 32] | 6.81 | 7.05 | –
12 | CC(=O)N1CCP(=O)(c2ccc3nc(Cl)nc(N[C@H](C)c4cccc(C(F)F)c4F)c3c2)CC1 [Example 33] | 6.60 | 7.19 | –
13 | CCP(=O)(CC)c1cc2c(N[C@H](C)c3cccc(C(F)F)c3F)nc(C)nc2cc1OC [Example 34] | – | 6.21 | –
14 | Cc1nc(N[C@H](C)c2cccc(C(F)F)c2F)c2cc(P3(=O)CCOCC3)ncc2n1 [Example 35] | 6.24 | 6.81 | –
15 | Cc1nc(N[C@H](C)c2cccc(C(F)F)c2F)c2cc(P3(=O)CCOCC3)ccc2n1 [Example 36] | 6.46 | 7.03 | –
16 | Cc1nc(N[C@H](C)c2cccc(C(F)(F)F)c2F)c2cc(P3(=O)CCOCC3)ccc2n1 [Example 37] | 6.44 | 7.01 | –
17 | Cc1nc(N[C@H](C)c2cccc(C(F)F)c2F)c2cc(P3(=O)CCOCC3)c(F)cc2n1 [Example 38] | 6.32 | 6.94 | –
18 | Cc1nc(N[C@H](C)c2cccc(C(F)F)c2F)c2cc(P3(=O)CCOCC3)cc(F)c2n1 [Example 39] | 6.25 | 6.99 | –
19 | Cc1nc(N[C@H](C)c2cccc(C(F)(F)F)c2C)c2cc(P3(=O)CCOCC3)c(=O)n(C)c2n1 [Example 40] | 6.29 | 6.75 | –
20 | Cc1nc(N[C@H](C)c2cccc(C(F)(F)F)c2F)c2cc(P3(=O)CCOCC3)nc(C#N)c2n1 [Example 41] | 6.24 | 6.74 | –
21 | Cc1nc(N[C@H](C)c2cc(N)cc(C(F)(F)F)c2)c2cc(P(C)(C)=O)c(O)cc2n1 [Example 44] | – | – | 6.14
22 | Cc1nc(N[C@H](C)c2cc(N)cc(C(F)(F)F)c2)c2cc(P(C)(C)=O)c(OC(F)F)cc2n1 [Example 45] | 5.97 | – | 6.16
23 | Cc1nc(N[C@H](C)c2cc(N)cc(C(F)(F)F)c2)c2cc(P(C)(C)=O)c(OCF)cc2n1 [Example 46] | 6.31 | – | 6.30
24 | [2H]C([2H])([2H])Oc1cc2nc(C)nc(N[C@H](C)c3cc(N)cc(C(F)(F)F)c3)c2cc1P(C)(C)=O [Example 47] | 6.36 | – | 6.24

Row | Compound | pIC50 [1] | pIC50 [2] | pIC50 [3]
25 | COCCN1CCP(=O)(c2cc3c(N[C@H](C)c4cccc(C(F)(F)F)c4)nc(C)nc3cn2)CC1 [Example 48] | 5.80 | – | 6.05
26 | Cc1nc(N[C@H](C)c2cccc(C(F)(F)F)c2)c2cc(P3(=O)CCN(C)CC3)ncc2n1 [Example 49] | 5.67 | – | 5.83
27 | Cc1nc(N[C@H](C)c2cccc(C(C)(F)F)c2F)c2cc(P3(=O)CCN(CC4CC4)CC3)ncc2n1 [Example 50] | 6.48 | – | 6.34
28 | Cc1nc(N[C@H](C)c2cccc(C(F)F)c2F)c2cc(P3(=O)CCN(C4COC4)CC3)ncc2n1 [Example 51] | 6.55 | 7.00 | –
29 | Cc1nc(N[C@H](C)c2cccc(C(C)(F)F)c2F)c2cc(P3(=O)CCN(C(=O)C4CCC4)CC3)ncc2n1 [Example 52] | 7.02 | – | 6.34
30 | COC(=O)N1CCP(=O)(c2cc3c(N[C@H](C)c4cccc(C(F)F)c4F)nc(C)nc3cn2)CC1 [Example 53] | 7.03 | – | 6.30
31 | CNCc1ccccc1-c1csc([C@@H](C)Nc2nc(C)nc3cnc(P4(=O)CCN(C(=O)C5CC5)CC4)cc23)c1 [Example 54] | 7.08 | – | 6.31
32 | Cc1nc(N[C@H](C)c2cccc(C(F)F)c2F)c2cc(P3(=O)CCN(C(=O)N(C)C)CC3)ncc2n1 [Example 55] | 6.55 | 7.06 | –
33 | Cc1nc(N[C@H](C)c2cccc(C(F)F)c2F)c2cc(P3(=O)CCN(CC#N)CC3)ccc2n1 [Example 56] | 6.29 | 7.06 | –
34 | Cc1nc(N[C@H](C)c2cccc(C(F)F)c2F)c2cc(P3(=O)CCN(CC(=O)N(C)C)CC3)ccc2n1 [Example 57] | 5.66 | 6.69 | –
35 | Cc1nc(N[C@H](C)c2cc(N)cc(C(F)(F)F)c2C)c2cc(P3(=O)CCN(C(=O)C(C)C)CC3)ncc2n1 [Example 58] | 7.51 | – | 6.36
36 | Cc1nc(N[C@H](C)c2cc(N)cc(C(F)(F)F)c2C)c2cc(P3(=O)CCN(C(=O)C4(F)CC4)CC3)ncc2n1 [Example 59] | 7.68 | – | 6.35
37 | Cc1nc(N[C@H](C)c2cc(N)cc(C(F)(F)F)c2C)c2cc(P3(=O)CCN(C(=O)C(C)(C)F)CC3)ncc2n1 [Example 60] | 7.52 | – | 6.36
38 | Cc1nc(N[C@H](C)c2cccc3c(F)coc23)c2cc(P3(=O)CCN(S(C)(=O)=O)CC3)ccc2n1 [Example 61] | 6.38 | 7.20 | –
39 | Cc1nc(N[C@H](C)c2cccc(C(F)(F)F)c2C)c2cc(P3(=O)CCN(S(C)(=O)=O)CC3)ccc2n1 [Example 62] | 6.81 | 7.35 | –
40 | COc1cc2nc(C)nc(N[C@H](C)c3cccc(C(F)F)c3F)c2cc1P1(=O)CCN(S(C)(=O)=O)CC1 [Example 63] | 6.86 | 7.42 | –
41 | C[C@@H](Nc1ncnc2cnc(P3(=O)CCN(S(C)(=O)=O)CC3)cc12)c1cccc(C(C)(F)F)c1F [Example 64] | 6.55 | 7.19 | –
42 | COc1cc2nc(C)nc(N[C@H](C)c3cccc(C(F)F)c3C)c2cc1P1(=O)CCOCC1 [Example 66] | 6.57 | 7.10 | –
43 | COc1cc2nc(C)nc(N[C@H](C)c3cccc(C(F)(F)F)c3C)c2cc1P1(=O)CCOCC1 [Example 67] | 6.58 | 7.15 | –
44 | COc1cc2nc(C)nc(N[C@H](C)c3cccc(C(F)(F)F)c3F)c2cc1P1(=O)CCOCC1 [Example 68] | 6.14 | 7.05 | –
45 | COc1cc2nc(C)nc(N[C@H](C)c3cccc(C(C)(F)F)c3F)c2cc1P1(=O)CCOCC1 [Example 69] | 6.51 | 7.31 | –
46 | COc1cc2nc(C)nc(N[C@H](C)c3cccc(C(F)(F)CO)c3)c2cc1P1(=O)CCOCC1 [Example 70] | 6.59 | 7.36 | –
47 | COc1cc2nc(C)nc(N[C@H](C)c3cccc(C(F)(F)C(C)(C)O)c3)c2cc1P1(=O)CCOCC1 [Example 71] | 6.86 | 7.46 | –
